These results are taken from ChEMBL document CHEMBL1212694, “Discovery and characterization of a marine bacterial SAM-dependent chlorinase” (Nat Chem Biol, 2008).

In experiment [1] the test system is Salinispora tropica CNB-440. Briefly: Activity at Salinispora tropica CNB-440 wild type recombinant SalL expressed in Escherichia coli BL21(DE3) after 30 mins by HPLC analysis.
The test system of experiment [2] is Salinispora tropica CNB-440. Kind of experiment: Ratio of Kcat to Km for Salinispora tropica CNB-440 wild type recombinant SalL expressed in Escherichia coli BL21(DE3).
For experiment [3], the system named is Salinispora tropica CNB-440. Kind of experiment: Activity at Salinispora tropica CNB-440 wild type recombinant SalL expressed in Escherichia coli BL21(DE3) assessed as formation of S-Adenosyl methionine after 30 mins by HPLC analysis.
Experiment [4] has as its system Salinispora tropica CNB-440. Kind of experiment: Ratio of Kcat to Km for Salinispora tropica CNB-440 wild type recombinant SalL expressed in Escherichia coli BL21(DE3) for formation of S-Adenosyl methionine.
The subject of experiment [5] is Salinispora tropica CNB-440. Kind of experiment: Effect on Salinispora tropica CNB-440 wild type recombinant SalL expressed in Escherichia coli BL21(DE3)-mediated S-Adenosyl methionine formation after 30 mins by HPLC analysis.
Experiment [6] concerns T1, Adenosyl-chloride synthase (Salinispora tropica (strain ATCC BAA-916 / DSM 44818 / CNB-440)), A4X3Q0 [Y70T].
T1 sequence (whole entry): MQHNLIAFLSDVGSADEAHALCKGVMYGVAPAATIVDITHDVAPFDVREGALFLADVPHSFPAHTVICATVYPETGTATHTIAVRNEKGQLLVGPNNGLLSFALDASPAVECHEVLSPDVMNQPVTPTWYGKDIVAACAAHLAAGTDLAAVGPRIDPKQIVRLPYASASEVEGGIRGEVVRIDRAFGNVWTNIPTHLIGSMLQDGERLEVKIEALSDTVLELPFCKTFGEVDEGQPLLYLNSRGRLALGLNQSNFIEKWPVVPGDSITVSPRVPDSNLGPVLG
Kind of experiment: Activity at Salinispora tropica CNB-440 recombinant SalL Y70T mutant expressed in Escherichia coli BL21(DE3) after 30 mins by HPLC analysis relative to S-Adenosyl methionine.

Experiment [7] has as its system T2, Adenosyl-chloride synthase (Salinispora tropica (strain ATCC BAA-916 / DSM 44818 / CNB-440)), A4X3Q0 [Y70T,G131S].
T2 sequence (whole entry): T1 sequence (whole entry) with G131S
Briefly: Activity at Salinispora tropica CNB-440 recombinant SalL Y70T/G131S mutant expressed in Escherichia coli BL21(DE3) after 30 mins by HPLC analysis relative to S-Adenosyl methionine.

For experiment [8], the system named is Salinispora tropica CNB-440. Kind of experiment: Activity at Salinispora tropica CNB-440 wild type recombinant SalL expressed in Escherichia coli BL21(DE3) after 30 mins by HPLC analysis relative to S-Adenosyl methionine.
The subject of experiment [9] is T3, Adenosyl-chloride synthase (Salinispora tropica (strain ATCC BAA-916 / DSM 44818 / CNB-440)), A4X3Q0 [W129F].
T3 sequence (whole entry): T1 sequence (whole entry) with T70Y, W129F
Briefly: Activity at Salinispora tropica CNB-440 recombinant SalL W129F mutant expressed in Escherichia coli BL21(DE3) after 30 mins by HPLC analysis relative to S-Adenosyl methionine.

Residue numbers refer to the chain shown, from its start. The source made the active and inactive calls. No cut-off for these calls is given here.

A word on the Km: it is the concentration of substrate that gives half-maximal velocity. The term kcat denotes the number of substrate molecules converted per active site and unit of time at saturation. One may read the kcat/Km as the second-order rate constant that governs catalysis at low substrate concentration. In the case of `C[S+](CC[C@H](N)C(=O)[O-])C[C@H]1O[C@@H](n2cnc3c(N)ncnc32)[C@H](O)[C@@H]1O` (some centres not stated), in experiment [1], the Km came out at 1 µM and the kcat worked out at 0.015 s⁻¹. In addition, the kcat/Km in [2] turned out to be 15000 M⁻¹ s⁻¹.
In the case of `CSCC[C@H](N)C(=O)O`, the Activity in experiment [3] turned out to be 1300%. Besides, the kcat/Km in experiment [4] was 76.7 M⁻¹ s⁻¹. Besides, in [5], the Km was 2600 µM and the kcat came to 0.2 s⁻¹.
On to `Nc1ncnc2c1ncn2[C@@H]1O[C@H](CBr)[C@@H](O)[C@H]1O`, for which the result in [3] was Active. In addition, the kcat/Km entry in experiment [4] is “Active”. Further, in [5], the Km entry was “Active” and the kcat result was “Active”.
In the case of `Nc1ncnc2c1ncn2[C@@H]1O[C@H](CCl)[C@@H](O)[C@H]1O`, the Activity in [6] is 1.1%; in [3], 1300%; in experiment [7], 2.5%; in experiment [8], 100%; in experiment [9], 11%. For the same compound, the kcat/Km in [4] is 1e+06 M⁻¹ s⁻¹. The Km in [5] came to 0.2 µM. For the same compound, the kcat in [5] is 0.2 s⁻¹.
Regarding `Nc1ncnc2c1ncn2[C@@H]1O[C@H](CI)[C@@H](O)[C@H]1O`, the Activity in [6] amounted to 1.4%; in [3] it was 5560%; in experiment [7] it was 0.8%; in experiment [8], 100%; in experiment [9], 12%. Also, the catalytic efficiency (kcat/Km) in experiment [4] turned out to be 181000 M⁻¹ s⁻¹. The Km in experiment [5] was 4.6 µM. Moreover, the catalytic constant (kcat) in [5] is 0.833 s⁻¹.
